In brackets after ≈: the same amount, converted by molar mass.
How the values were obtained:
[1] = target: T1, Prostaglandin G/H synthase 2 (Homo sapiens, UniProt P35354); test: Inhibition of COX-2 (unknown origin) by colorimetric method
T1 sequence (P35354 whole entry): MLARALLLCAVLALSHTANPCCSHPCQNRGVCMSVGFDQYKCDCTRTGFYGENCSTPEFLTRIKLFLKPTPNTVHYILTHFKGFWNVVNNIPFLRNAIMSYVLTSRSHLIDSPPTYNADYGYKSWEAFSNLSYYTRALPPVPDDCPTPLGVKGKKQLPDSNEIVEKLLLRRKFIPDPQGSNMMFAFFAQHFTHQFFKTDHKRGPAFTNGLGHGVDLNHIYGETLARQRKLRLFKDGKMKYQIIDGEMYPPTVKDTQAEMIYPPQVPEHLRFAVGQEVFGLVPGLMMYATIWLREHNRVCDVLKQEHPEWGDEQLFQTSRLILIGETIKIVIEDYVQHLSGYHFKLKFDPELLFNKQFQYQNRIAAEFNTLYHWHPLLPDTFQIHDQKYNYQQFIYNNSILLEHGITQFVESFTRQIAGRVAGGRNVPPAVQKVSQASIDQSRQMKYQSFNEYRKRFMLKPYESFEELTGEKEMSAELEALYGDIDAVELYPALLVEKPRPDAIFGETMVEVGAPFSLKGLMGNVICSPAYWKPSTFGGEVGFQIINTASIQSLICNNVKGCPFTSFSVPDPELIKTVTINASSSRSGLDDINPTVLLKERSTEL

[2] = target: T2, Polyunsaturated fatty acid 5-lipoxygenase (Homo sapiens, UniProt P09917); test: Inhibition of human 5-LOX by colorimetric assay
T2 sequence (P09917 whole entry): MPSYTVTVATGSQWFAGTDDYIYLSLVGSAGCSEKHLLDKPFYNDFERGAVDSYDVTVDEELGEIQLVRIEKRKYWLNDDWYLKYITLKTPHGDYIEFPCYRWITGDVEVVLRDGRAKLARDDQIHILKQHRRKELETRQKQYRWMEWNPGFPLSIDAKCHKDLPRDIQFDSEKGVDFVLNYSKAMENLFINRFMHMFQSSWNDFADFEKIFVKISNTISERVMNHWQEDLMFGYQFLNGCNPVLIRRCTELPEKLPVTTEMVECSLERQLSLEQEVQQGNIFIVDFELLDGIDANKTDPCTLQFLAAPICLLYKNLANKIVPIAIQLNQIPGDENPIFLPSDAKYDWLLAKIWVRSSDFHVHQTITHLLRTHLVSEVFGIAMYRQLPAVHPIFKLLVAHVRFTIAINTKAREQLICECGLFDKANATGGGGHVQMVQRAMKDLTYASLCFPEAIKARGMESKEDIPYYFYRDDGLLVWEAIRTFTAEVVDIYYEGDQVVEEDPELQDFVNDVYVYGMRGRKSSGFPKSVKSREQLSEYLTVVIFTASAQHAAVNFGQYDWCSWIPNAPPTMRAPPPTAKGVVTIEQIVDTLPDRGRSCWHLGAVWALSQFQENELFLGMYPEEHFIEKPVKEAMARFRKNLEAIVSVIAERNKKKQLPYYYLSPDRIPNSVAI

[3] = target: T1, Prostaglandin G/H synthase 2; test: Inhibition of COX-2 (unknown origin) by enzyme immune assay
[4] = tested on: DLD-1; test: Anticancer activity against human DLD-1 cells assessed as cell growth inhibition incubated for 3 hrs by Sulforhodamine B assay; assay type: functional, cell-based; settings: DLD-1, 3 h
[5] = target: Prostaglandin G/H synthase 1 (Homo sapiens, UniProt P23219); test: Inhibition of COX-1 (unknown origin) by enzyme immune assay
Chain of Prostaglandin G/H synthase 1 (P23219 whole entry): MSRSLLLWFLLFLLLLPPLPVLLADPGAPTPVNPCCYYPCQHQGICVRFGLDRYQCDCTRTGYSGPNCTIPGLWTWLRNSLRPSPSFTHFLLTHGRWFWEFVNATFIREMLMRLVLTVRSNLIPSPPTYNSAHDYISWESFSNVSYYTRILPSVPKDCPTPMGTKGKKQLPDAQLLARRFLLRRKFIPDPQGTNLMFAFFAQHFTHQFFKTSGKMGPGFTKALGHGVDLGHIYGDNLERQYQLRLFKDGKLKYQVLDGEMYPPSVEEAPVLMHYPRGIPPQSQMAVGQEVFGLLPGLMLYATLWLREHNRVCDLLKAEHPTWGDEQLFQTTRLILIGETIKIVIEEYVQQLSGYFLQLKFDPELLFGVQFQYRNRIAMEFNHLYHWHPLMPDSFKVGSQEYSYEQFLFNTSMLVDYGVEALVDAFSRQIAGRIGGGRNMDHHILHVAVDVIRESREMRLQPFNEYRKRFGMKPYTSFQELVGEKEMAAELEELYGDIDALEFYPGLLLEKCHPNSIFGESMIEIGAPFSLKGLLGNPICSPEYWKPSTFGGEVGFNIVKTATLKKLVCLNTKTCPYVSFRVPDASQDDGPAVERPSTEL

[6] = tested on: MCF7; test: Anticancer activity against human MCF7 cells assessed as cell growth inhibition incubated for 3 hrs by Sulforhodamine B assay; assay type: functional, cell-based; settings: MCF7, 3 h

Row | IC50 [1] [µM] | IC50 [2] [µM] | IC50 [3] [µM] | IC50 [4] [µg/mL] | IC50 [5] [µM] | IC50 [6] [µg/mL] | Structure (SMILES)
1 | 0.25 | 0.02 |  |  |  |  | O=C1/C(=C/c2ccc(Cl)cc2)N=C(c2ccccc2)N1c1ccc(-c2nc3ccccc3o2)cc1
2 |  |  | 399 | 52.5 (≈ 238 µM) | 395 | 82 (≈ 372 µM) | C=C1CC[C@@H]2[C@H](CC2(C)C)C(=C)CC[C@H]1O

Source: ChEMBL document CHEMBL5241097, “Synthetically-tailored and nature-derived dual COX-2/5-LOX inhibitors: Structural aspects and SAR” (Eur J Med Chem, 2021)
